According to patent US6335039B1, “Pharmaceutical formulations comprising vegetal material selected from trichilia” (Laboratorio Catarinense S/A, priority 1997, dated 2002):

Legend:
HCC = assay: Superfusion of isolated corpus cavernosum (human, HCC); assay type: cell-based
[1] = system: corpus cavernosum of the rabbit (RbCC); assay type: cell-based; settings: for relaxation of RbCC in presence of ATP-dependent potassium channel blocker: blocker 10 μM (Glybenclamide, FIG. 4)
nociception by formalin = assay: Formalin-induced licking; assay type: in vivo, mice; settings: naloxone 10 minutes before; acute and inflammatory phases, formalin 2.5% w/v
Method: Male Swiss mice varying from 25 to 35 g, were housed at 22° C.±2° C. under a 12 h light/12 h dark circle and with access to water and purina. The animals were acclimatized to the laboratory for at least 1 hour before testing and were used once throughout the experiments.
Mice were lightly anaesthetized, with exception of those used to analyze the first phase of fromalin-induced pain. The surface of the animals paws was injected with 20 μL of 2.5% w/v formalin. Two groups of mice (mice treated with T. catigua and control mice) were simultaneously observed over a period from 0 to 30 min after the formalin injection. The total time spent by the animal licking the injected paw was timed with a chronometer and was considered as an indicative of pain. The first phase of the nociceptive response normally occurred […] the formalin injection and the second phase was from 15 to 30 min after such induction. These phases represent the neurogenic and inflammatory responses, respectively. In order to avoid pharmacokinetic influences, different groups of animals were used to analyze each phase of the experiment. Alternatively, animals were pretreated with naloxone 10 min prior to the administration of compositions comprising an extract of T. catigua.

O=[N+]([O-])OCC(CO[N+](=O)[O-])O[N+](=O)[O-] [GTN, glyceryltrinitrate]
relaxation of HCC during L-NAME infusion (HCC; Ach 0.6 μM, GTN 1.3 μM, Cat 10-100 μL, 4 tissue strips from 2 donators): not significantly affected
relaxation of RbCC in presence of tetrodotoxin [1]: did not present any effect
relaxation of RbCC during L-NAME infusion ([1]; L-NAME 10 μM, FIG. 2, 6 experiments): not affected
relaxation of RbCC in presence of atropine ([1]; atropine 1 μM, FIG. 3, 4 experiments): did not present any effect
relaxation of RbCC in presence of ATP-dependent potassium channel blocker [1]: without affecting

COC(=O)[C@@H](N)CCCNC(=N)N[N+](=O)[O-] [L-NAME, N^m-nitro-L-arginine methyl ester]
HCC tonus (HCC; infusion of L-NAME): enhanced the HCC tonus
basal tonus of RbCC ([1]; infusion of L-NAME 10 μM, FIG. 2): enhanced the basal tonus

N=C(N)NCCC[C@H](N)C(=O)O [L-arg, L-arginine]
RbCC tonus on subsequent infusion after L-NAME ([1]; L-arg 300 μM after L-NAME, FIG. 2): reverted the enhanced tonus

CN1CC[C@]23c4c5ccc(O)c4O[C@H]2[C@@H](O)C=C[C@H]3[C@H]1C5 [morphine]
analgesic action after pretreatment with naloxone (nociception by formalin): reverted

CC1(C)Oc2ccc(C#N)cc2C(N2CCCC2=O)C1O (stereo not shown) [CMK, cromakalim]
relaxation of RbCC in presence of ATP-dependent potassium channel blocker [1]: inhibited
